# From patent US20240208963A1, “CRYSTALLINE MELANOCORTIN SUBTYPE-2 RECEPTOR (MC2R) ANTAGONIST” (Crinetics Pharmaceuticals, Inc., priority 2022, published 2024)
# Counter-ions that a name gives are not always drawn. Like-named read-outs stand apart in the source and are kept apart here. Marks after values point to notes of the source that are not given here.
# How the values were obtained:
# [1] = Solubility in simulated fluids and water; assay type: physicochemical; details: 37° C.
# Description: Calibration samples for solubility in simulated fluids were prepared with freebase Compound I.
# Solubility in simulated fluids were studied with the mandelate and maleate solids. The simulated fluids FaSSIF (fasted-state intestinal), FaSSGF (fasted-state gastric), and FeSSIF (fed-state intestinal) were removed from the refrigerator, warmed to room temperature, and the pH of each was measured. Between 1.9 and 2.0 mg of each salt was weighed into four vials and 1 mL of each fluid was added, including water. Stir bars (10 mm) were added to the vials and the vials were stirred at 37° C. After 30 mi (mandelate samples) or 1 h (maleate samples), the pH of each solution was measured, then 400 μL of each was removed and syringe filtered with 0.45 µm syringe filters. Approximately 300 μL of the recovered filtrate was diluted 5× with diluent and injected for HPLC analysis. The remainder of the samples in the vials were allowed to stir overnight. After 24 h stirring at 37° C., samples were filtered and diluted as before, and injected for analysis.
# [2] = Solubility of solid state forms in solvents (gravimetric or solvent addition); assay type: physicochemical
# Description: The solubility of certain solid state forms of Compound I was determined in various solvents by either gravimetric solubility or solvent addition.
# About 25 mg of compound was weighed into vials. Approximately 5 vol. (0.125 mL) of solvent was added to the solids and the mixtures stirred at the designated temperature (RT or 50° C.). Solutions were noted and an additional 0.125 mL of solvent was added to the slurries. […] If a thicker slurry was noted, 0.25 mL of solvent was added (total volume 0.5 mL). If a thick slurry was again noted, an additional 0.25 mL of solvent was added (total volume 0.75 mL). After stirring for 2 days, the slurries were centrifuged, the supernatant was collected into preweighed vials, and the solvent evaporated at 50° C. (ambient pressure) without stirring. The vials containing the solid residues were dried in a vacuum oven at 50 C, 10^−2-10^−1 Torr, for 3 h before weighing again to determine the mass of solid that was dissolved in the supernatant (i.e. mg solid/mL solvent).
# About 20 mg of compound was weighed into vials. Solvent was added in aliquots and stirred at the designated temperature until complete dissolution was observed. This measurement gave a solubility range.
# [3] = Form stability at ambient conditions for one week (XRPD); assay type: physicochemical
# Text: Some of the samples generated in the antisolvent crystallization experiments were mixtures of Pattern B, Pattern C, and Pattern D. These samples were left at ambient conditions for one week, then analyzed again by XRPD.
# Pure Pattern B was generated in the antisolvent crystallization with MIBK and heptane. […] The solids were scraped from the XRPD plate and used for simultaneous TGA/DSC analysis. […] After the solids required for the TGA/DSC analysis were transferred to the pan, the remainder of the solids were re-pressed to the XRPD sample plate and analyzed again.
# [4] = Dynamic vapor sorption (DVS); assay type: physicochemical
# Description: DVS was performed using a DVS Intrinsic 1. The sample (20-25 mg) was loaded into a sample pan, suspended from a microbalance and exposed to a humidified stream of nitrogen gas. The sample was held for a minimum of 5 min at each level and only progressed to the next humidity level if there was <0.002% change in weight between measurements (interval: 60 s) or 240 min had elapsed. The following program was used: • 1. Equilibration at 50% RH • 2. 50% to 2%. (50%, 40%, 30%, 20%, 10%, and 2%) • 3. 2% to 95% (2%, 10%, 20%, 30%, 40%, 50%, 60%, 70%, 80%, 90%, and 95%) • 4. 95% to 2% (95%, 80%, 70%, 60%, 50%, 40%, 30%, 20%, 10%, and 2%) • 5. 2% to 50% (2%, 10%, 20%, 30%, 40%, and 50%)
# [5] = Stability of crystalline forms at 40° C. and 75% relative humidity (XRPD, HPLC purity); details: for Change by XRPD after storage / Degradation by HPLC purity analysis after storage: 40° C., 75% relative humidity
# Description: Approximately 10 mg of the Crystalline Pattern D of Compound I Maleate, 20 mg of the Crystalline Pattern C of Compound I Maleate, and 10 mg of the Crystalline Pattern E of Compound I Mandelate were weighed into open 4 mL vials that were placed into a 20 mL vial containing a saturated NaCl solution. The vial was sealed and kept at 40° C. for 7 days, creating an atmosphere at 75% relative humidity in the system. After 7 days, the materials were sampled and plated for XRPD analysis.
# The stability test was repeated on Patterns C and D of Compound I Maleate for 11 days.
structure (smiles),measurement,setting,value
"CCOc1ccccc1-c1ccc(N2CCN(C(=O)C3(C(F)(F)F)CCC3)C[C@H]2CC)c(C(=O)N[C@@H]2CN3CCC2CC3)n1 [Pattern D Maleate, N-[(3S)-1-azabicyclo[2.2.2]octan-3-yl]-6-(2-ethoxyphenyl)-3-[(2R)-2-ethyl-4-[1-(trifluoromethyl)-cyclobutanecarbonyl]piperazin-1-yl]pyridine-2-carboxamide maleate]",solubility at 1 h,"[1]; FaSSGF (fasted-state simulated gastric fluid), pH 1.49, fassgf or other biorelevant, thermodynamic from solid, FaSSGF, 1 h",> 2500 µg/mL
same,solubility at 24 h,"[1]; FaSSGF (fasted-state simulated gastric fluid), pH 1.49, fassgf or other biorelevant, thermodynamic from solid, FaSSGF, 24 h",> 2500 µg/mL
same,Sample pH,"[1]; FaSSGF (initial pH 1.49), 1 h",4.66
same,Sample pH,"[1]; FaSSGF (initial pH 1.49), 24 h",5.07
same,solubility at 24 h,"[1]; FaSSIF (fasted-state simulated intestinal fluid), pH 6.35, thermodynamic from solid, FaSSIF, 24 h",1470 µg/mL
same,solubility at 1 h,"[1]; FaSSIF (fasted-state simulated intestinal fluid), thermodynamic from solid, FaSSIF, 1 h",1500 µg/mL
same,Sample pH,"[1]; FaSSIF (initial pH 6.35), 1 h",6.23
same,Sample pH,"[1]; FaSSIF (initial pH 6.35), 24 h",6.92
same,"Solids recovered from the solubility experiment (appearance, XRPD)","[1]; FaSSIF, after 24 h",oily and appeared as amorphous
same,solubility at 1 h,"[1]; FeSSIF (fed-state simulated intestinal fluid), pH 4.83, thermodynamic from solid, FeSSIF, 1 h",> 2500 µg/mL
same,solubility at 24 h,"[1]; FeSSIF (fed-state simulated intestinal fluid), pH 4.83, thermodynamic from solid, FeSSIF, 24 h",> 2500 µg/mL
same,Sample pH,"[1]; FeSSIF (initial pH 4.83), 1 h",1.50
same,Sample pH,"[1]; FeSSIF (initial pH 4.83), 24 h",1.85
same,solubility at 1 h,"[1]; thermodynamic from solid, water, 1 h",> 2500 µg/mL
same,solubility at 24 h,"[1]; thermodynamic from solid, water, 24 h",> 2500 µg/mL
same,Sample pH,"[1]; water, 1 h",~6.35
same,Sample pH,"[1]; water, 24 h",5.60
same,Solubility (in words),[2]; EtOAc and MIBK at RT and 50° C.,freely soluble and soluble
same,solubility,"[2]; EtOAc, 50 °C, organic solvent or mixture, thermodynamic from solid, EtOAc, 50° C., read-out: Solubility",68000 µg/mL
same,solubility,"[2]; EtOAc, RT, maleate",43^d mg/mL
same,solubility,"[2]; EtOH, RT, maleate",>50^a mg/mL
same,solubility,"[2]; EtOH:MtBE (1:9 vol.), organic solvent or mixture, thermodynamic from solid, EtOH:MtBE (1:9 vol.), RT, read-out: Solubility",4000 µg/mL
same,solubility,"[2]; EtOH:MtBE (3:7 vol.), organic solvent or mixture, thermodynamic from solid, EtOH:MtBE (3:7 vol.), RT, read-out: Solubility",51000 µg/mL
same,Solubility (in words),[2]; IP at RT,soluble
same,Behaviour in solvent (in words),"[2]; IPA, 50° C.",a slurry could not be maintained
same,solubility,"[2]; IPA, organic solvent or mixture, thermodynamic from solid, IPA, RT, read-out: Solubility",68000 µg/mL
same,solubility,"[2]; IPA:MtBE (1:1 vol.), organic solvent or mixture, thermodynamic from solid, IPA:MtBE (1:1 vol.), RT, read-out: Solubility",10000 µg/mL
same,solubility,"[2]; IPA:MtBE (1:9 vol.), organic solvent or mixture, thermodynamic from solid, IPA:MtBE (1:9 vol.), RT, read-out: Solubility",< 3000 µg/mL
same,solubility,"[2]; IPA:MtBE (3:7 vol.), organic solvent or mixture, thermodynamic from solid, IPA:MtBE (3:7 vol.), RT, read-out: Solubility",7000 µg/mL
same,solubility,"[2]; IPA:water (9:1 vol.), organic solvent or mixture, thermodynamic from solid, IPA:water (9:1 vol.), RT, read-out: Solubility",> 333000 µg/mL
same,solubility,"[2]; IPAc, 50 °C, organic solvent or mixture, thermodynamic from solid, IPAc, 50° C., read-out: Solubility",13000 µg/mL
same,solubility,"[2]; IPAc, organic solvent or mixture, thermodynamic from solid, IPAc, RT, read-out: Solubility",7000 µg/mL
same,solubility,"[2]; MEK, RT, maleate",>50^a mg/mL
same,solubility,"[2]; MIBK, 50 °C, organic solvent or mixture, thermodynamic from solid, MIBK, 50° C., read-out: Solubility",65000 µg/mL
same,solubility,"[2]; MIBK, RT, maleate",43^c mg/mL
same,solubility,"[2]; MeOAc, 50 °C, organic solvent or mixture, thermodynamic from solid, MeOAc, 50° C., read-out: Solubility",> 250000 µg/mL
same,solubility,"[2]; MeOAc, organic solvent or mixture, thermodynamic from solid, MeOAc, RT, read-out: Solubility",168000 µg/mL
same,solubility,"[2]; MeOAc:MtBE (1:1 vol.), organic solvent or mixture, thermodynamic from solid, MeOAc:MtBE (1:1 vol.), RT, read-out: Solubility",17000 µg/mL
same,solubility,"[2]; MeOAc:MtBE (1:9 vol.), organic solvent or mixture, thermodynamic from solid, MeOAc:MtBE (1:9 vol.), RT, read-out: Solubility",3000 µg/mL
same,solubility,"[2]; MeOAc:MtBE (3:7 vol.), organic solvent or mixture, thermodynamic from solid, MeOAc:MtBE (3:7 vol.), RT, read-out: Solubility",7000 µg/mL
same,solubility,"[2]; MeOH, RT, maleate",>50^a mg/mL
same,solubility,"[2]; MtBE, 50 °C, organic solvent or mixture, thermodynamic from solid, MtBE, 50° C., read-out: Solubility",< 3000 µg/mL
same,solubility,"[2]; MtBE, RT, maleate",<3^c mg/mL
same,solubility,"[2]; THF, RT, maleate",>50^a mg/mL
same,solubility,"[2]; acetone, RT, maleate",>50^a mg/mL
same,solubility,"[2]; diethyl ether, organic solvent or mixture, thermodynamic from solid, diethyl ether, RT, read-out: Solubility",4000 µg/mL
same,Solubility (in words),"[2]; heptane, diethyl ether, and MtBE",insoluble
same,solubility,"[2]; n-heptane, 50 °C, organic solvent or mixture, thermodynamic from solid, n-heptane, 50° C., read-out: Solubility",< 3000 µg/mL
same,solubility,"[2]; n-heptane, RT, maleate",<3^c mg/mL
same,Form conversion by XRPD at ambient conditions,[3],no observable conversion
same,Hygroscopicity (in words),[4]; DVS,slightly hygroscopic
same,Change by XRPD following the DVS analysis,[4]; after DVS from 2 to 95% RH,No change
same,Reversible mass gain (DVS),[4]; from 2 to 95% relative humidity,1.14 wt. %
same,Behaviour at high humidity,[4]; high humidity,stable
same,Change by XRPD after storage,[5]; 7 days,No visible change
same,Degradation by HPLC purity analysis after storage,[5]; 7 days,no degradation
same,Change by XRPD after storage,[5]; 11 days,No visible change
same,Degradation by HPLC purity analysis after storage,[5]; 11 days,no degradation
same,Stability on storage (in words),[5]; over a week at 40° C. and 75% RH,stable
